Test [1] has as its system human cardiac fibroblast (HCF). The test is described as follows: TGF-β1-induced activation of human cardiac fibroblasts (Western blot). To be noted: 10 μM co-treatment, 24 hours. The class given is cell-based. How it is done:
(§1) Cells were co-treated with various compounds (10 μM) and TGF-β1 for 24 hours. Following this, cell lysates were harvested, and the protein expression was assessed by Western blot analysis. FIG. 3D depicts the examination of TGF-β1-induced fibronectin deposition and α-SMA expression in HCF treated with 10 μM of DMSO, BTP2, WRG-28, or Av through immunofluorescence staining. The images were captured using a confocal microscope, the Olympus FV-1000. FIG. 3E, FIG. 3F, and FIG. 3G illustrate the assessment of CRAC channel activity in HCF, MRC5, and rat HSC-T6. These cells were pretreated with 10 μM of BTP2, WRG-28, or Av for 45 min. The evaluation included measuring the second peak of each calcium wave and the rate of entry. […]
(§2) Cell lysates were harvested in RIPA buffer (150 mM NaCl, 1 mM EGTA, 50 mM Tris pH 7.4, 10% glycerol, 1% Triton X-100, 1% sodium deoxycholate, 0.1% SDS, and protease inhibitor cocktail) and collected from culture dish with cell scrapers. […] The protein expression levels were assessed by specific primary antibodies, including antibodies against phosphotyrosine (clone 4G10; Millipore), DDR2 (R&D), α-SMA (Sigma), Collagen 1a1 (Boster), E-cadherin (BD Biosciences), SGLT2 (Proteintech), NHE1 (Novus) and β-actin (Clone C4, Millipore), followed by incubating with secondary antibodies conjugated with HRP and detected by ECL kit (Thermo Scientific). […]
For orientation: In western blotting, separated proteins are transferred to a membrane and probed.

The test system of test [2] is human pulmonary fibroblast (MRC5). The test is described as follows: TGF-β1-induced activation of human pulmonary fibroblasts (Western blot). The test is classed as cell-based. To be noted: MRC5, 10 μM co-treatment, 24 hours. How it is done:
as §1, §2

Test [3] has as its system human cardiac fibroblast (HCF). The experiment in a line: TGF-β1-induced fibronectin deposition and α-SMA expression in HCF (immunofluorescence). The test is classed as cell-based. Particulars: for TGF-β1-increased cell spreading area: 10 μM co-treatment; for expression of fibronectin and α-SMA induced by TGF-β1: 10 μM, immunofluorescence. How it is done: Cells were co-treated with various compounds (10 μM) and TGF-β1 for 24 hours. Following this, cell lysates were harvested, and the protein expression was assessed by Western blot analysis. FIG. 3D depicts the examination of TGF-β1-induced fibronectin deposition and α-SMA expression in HCF treated with 10 μM of DMSO, BTP2, WRG-28, or Av through immunofluorescence staining. The images were captured using a confocal microscope, the Olympus FV-1000. FIG. 3E, FIG. 3F, and FIG. 3G illustrate the assessment of CRAC channel activity in HCF, MRC5, and rat HSC-T6. These cells were pretreated with 10 μM of BTP2, WRG-28, or Av for 45 min. The evaluation included measuring the second peak of each calcium wave and the rate of entry. Each bar within the figure represents the mean value derived from 77 to 91 cells for HCF, 31 to 49 cells for MRC5, and 43 to 94 cells for HSC-T6. In all the graphs, *, **, and *** denote p-values of <0.05, 0.01, and 0.001, respectively.
In TGF-β1-induced cell differentiation, cells were seeded on a type I collagen-coated tissue culture dish and then treated with different compounds for 4 hours. Cells were then treated with 10 ng/ml TGF-β1 for another 24 hours before protein analysis or immunocytochemistry study.
Cells cultured on chamber slides were fixed with 4% paraformaldehyde for 10 minutes followed by a permeabilization step by incubating cells in 0.5% Triton X-100 in PBS for 5 minutes. Cells were then incubated in SuperBlock blocking buffer (Thermo Scientific) for 1 h at room temperature. The protein expression was detected by incubating cells with specific primary antibodies followed by incubating cells with secondary antibodies against mouse or rabbit IgG conjugated with Alexa-488 or -594 nm (Invitrogen), respectively. Hoechst 33258 (10 μg/ml) is used for nuclei staining. All images were visualized and taken by confocal microscopy (Olympus, FV-1000).
To assess the overall effects of WRG-28 and Av on TGF-1-induced fibroblast activation, human cardiac fibroblasts (HCF), human pulmonary fibroblasts (MRC5), and rat hepatic stellate cells (HSC-T6) were employed. The upregulation of α-SMA induced by TGF-β1 treatment was observed, but this effect was suppressed by the co-treatment with various compounds, including BTP2, WRG-28, and Av, across all tested cell (FIG. 3A, FIG. 3B, and FIG. 3C). The expression of fibronectin and α-SMA induced by TGF-β1 in HCF was examined, and once again, the treatment with BTP2, WRG-28, or Av suppressed this effect (FIG. 3D).

The next test relates to Jurkat T cells. The test is described as follows: Cytokine secretion in T cells (ELISA). The class given is cell-based, human. To be noted: PHA/PMA induction, culture medium. For orientation: ELISA stands for enzyme-linked immunosorbent assay.
Test [4] deals with UUO-induced renal fibrosis. The test is described as follows: Unilateral ureteral obstruction (UUO) renal fibrosis model. To be noted: for UUO-induced downregulation of E-cadherin (kidney, Western blot) / UUO-induced upregulation of integrin β1, DDR2, collagen 1a1, and α-SMA (kidney, Western blot) / area positively stained with fibrillar collagen (Sirius red) / histology: UUO-induced tubular dilation and interstitial expansion (H&E): 5 mg/kg/day for 7 days; for apoptotic tubular cells (TUNEL): 5 mg/kg/day for 7 days during ureter obstruction. The class given is in vivo, mouse. How it is done: Surgical ligation was performed on the left ureter of 7-to-8-week-old male mice using a nylon surgical suture. Subsequently, the mice were treated with 5 mg/kg/day of DMSO (control), BTP2, WRG-28, or Av for 7 days. […] FIG. 5B illustrates the evaluation of fibrillar collagen expression levels via Sirius red staining. FIG. 5C presents the measurement of the Sirius red-positive area using Image J. FIG. 5D, FIG. 5E, FIG. 5F, FIG. 5G, and FIG. 5H depict the protein levels of integrin β1, DDR2, Collagen 1a1, α-SMA, and E-cadherin in kidney samples from mice treated with 5 mg/kg/day of BTP2 (FIG. 5D), WRG-28 (FIG. 5F), or Av (FIG. 5H), which were assessed by Western blot analysis. […] FIG. 5K illustrates the evaluation of apoptotic cells from 5-10 pictures in each condition.
Cell lysates were harvested in RIPA buffer (150 mM NaCl, 1 mM EGTA, 50 mM Tris pH 7.4, 10% glycerol, 1% Triton X-100, 1% sodium deoxycholate, 0.1% SDS, and protease inhibitor cocktail) and collected from culture dish with cell scrapers. For tissue sample preparation, half of the kidney tissues were cut into ˜1 mm3 and then put into 500 μl RIPA buffer in 2 ml tubes. Mechanical homogenizers by agitating beads at high speeds for 30 seconds were used for tissue protein extraction. Protein samples in supernatants were collected after centrifuging the tubes at 10000 g for 10 min at 4° C. 20-30 μg protein samples were resolved by 7.5% or 10% SDS-PAGE. The protein expression levels were assessed by specific primary antibodies, including antibodies against phosphotyrosine (clone 4G10; Millipore), DDR2 (R&D), α-SMA (Sigma), Collagen 1a1 (Boster), E-cadherin (BD Biosciences), SGLT2 (Proteintech), NHE1 (Novus) and β-actin (Clone C4, Millipore), followed by incubating with secondary antibodies conjugated with HRP and detected by ECL kit (Thermo Scientific).
Procedures involving animal subjects have been approved by the Institutional Animal Care and Use Committee (IACUC) at the National Laboratory Animal Center. 7-8 weeks old male C57BL/6 mice were obtained from the animal center. Unilateral ureteral obstruction (UUO) was performed by ligating the left ureter and mice were treated with 5 mg/kg/day DMSO, BTP2, WRG-28, or Av for 7 days after ligation. After 7 days, mice were sacrificed and the kidneys were removed and used for analysis. One-quarter of the kidney was fixed by 4% paraformaldehyde and embedded in paraffin or one-quarter of the kidney was embedded in the Tissue-Tek OCT compound. Half of the kidneys are used for protein analysis. In the reversible unilateral ureteral obstruction (RUUO) experiment, the ligated-left ureter was re-connected to the bladder after UUO surgery for 7 days. The compounds, WRG-28 and Av, were injected during ligation (7*/15d) or after ligation was released (7/15*d). To assess the kidney function, the right ureter was ligated the day before leaving mice in the metabolic cage. The urine and blood were collected for blood urea nitrogen (BUN) and creatinine (CRE) test.
Deparaffinize and rehydrate tissue slides were immersed in filtered Harris Hematoxylin for 10 seconds. After extensively washing in tap water, samples were immersed in Alcoholic-Eosin for 2 minutes. The tissue was then dehydrated and mounted by resinous medium and glass coverslips.
Deparaffinize and rehydrate tissue slides were stained with Picrosirius red for one hour, followed by an extensive wash with acidified water. After dehydration through 3 runs of change of 95% ethanol, 2 runs of change of 100% ethanol, and 3 runs of change of xylene, tissue slides were mounted by resinous mounting medium and glass coverslips. […]
The TUNEL assay kit was purchased from Abcam (ab206386). The procedure was carried out following the manufactory's instructions. […]

Entries after “also recorded” stand apart in the source; their conditions may differ.

For `Cc1nnsc1C(=O)Nc1ccc(-n2nc(C(F)(F)F)cc2C(F)(F)F)cc1` [BTP2], the “upregulation of α-SMA induced by TGF-β1” value in test [1] is given as “suppressed”. The “upregulation of α-SMA induced by TGF-β1” value in test [2] is reported as “suppressed”. For the same compound, in test [3], the “TGF-β1-increased cell spreading area” value is on record as “mitigated”; the “expression of fibronectin and α-SMA induced by TGF-β1” value is on record as “suppressed”. Further, the “secretion of IL-2 in T cells” value in the test with Jurkat T cells is recorded as “significantly reduced”. In addition, in test [4], the “UUO-induced downregulation of E-cadherin (kidney, Western blot)” value is “reversing”; the “UUO-induced upregulation of integrin β1, DDR2, collagen 1a1, and α-SMA (kidney, Western blot)” value was “suppressed”; the “area positively stained with fibrillar collagen (Sirius red)” value is reported as “significantly reduced”; the “histology: UUO-induced tubular dilation and interstitial expansion (H&E)” value was “appeared to mitigate the effects caused by UUO”. The “apoptotic tubular cells (TUNEL)” value in test [4] is given as “notably reduced”.
Turning to `CCNS(=O)(=O)c1ccc(COc2ccc3nc4ccc(=O)cc-4oc3c2)cc1` [WRG-28], in test [1], the “upregulation of α-SMA induced by TGF-β1” value is recorded as “suppressed”. The “upregulation of α-SMA induced by TGF-β1” value in test [2] is “suppressed”. In test [3], the “TGF-β1-increased cell spreading area” value is listed as “mitigated”; the “expression of fibronectin and α-SMA induced by TGF-β1” value is on record as “suppressed”. For the same compound, the “secretion of IL-2 in T cells” value with Jurkat T cells was “significantly reduced”. Besides, in test [4], the “UUO-induced downregulation of E-cadherin (kidney, Western blot)” value is on record as “reversing”; the “UUO-induced upregulation of integrin β1, DDR2, collagen 1a1, and α-SMA (kidney, Western blot)” value was “suppressed”; the “area positively stained with fibrillar collagen (Sirius red)” value was “significantly reduced”; the “histology: UUO-induced tubular dilation and interstitial expansion (H&E)” value is reported as “appeared to mitigate the effects caused by UUO”. For the same compound, the “apoptotic tubular cells (TUNEL)” value in test [4] is on record as “notably reduced; also recorded: significantly reduced”.
